Data on 31 compounds can be found in ChEMBL document CHEMBL3769338, “Tricyclic phenothiazine and phenoselenazine derivatives as potential multi-targeting agents to treat Alzheimer's disease” (Medchemcomm, 2015).

The source made the active and inactive calls. The calls are words filed in the database; no cut-off is given here.

The term IC50 denotes the concentration at which inhibition is half-maximal. The low end stands for greater potency, the high end for weaker potency. A word on the inhibition: it is the share of the control response that was lost under treatment.

In series [1] the target is T1, Cholinesterase (Homo sapiens, UniProt P06276).
T1 sequence (P06276 whole entry): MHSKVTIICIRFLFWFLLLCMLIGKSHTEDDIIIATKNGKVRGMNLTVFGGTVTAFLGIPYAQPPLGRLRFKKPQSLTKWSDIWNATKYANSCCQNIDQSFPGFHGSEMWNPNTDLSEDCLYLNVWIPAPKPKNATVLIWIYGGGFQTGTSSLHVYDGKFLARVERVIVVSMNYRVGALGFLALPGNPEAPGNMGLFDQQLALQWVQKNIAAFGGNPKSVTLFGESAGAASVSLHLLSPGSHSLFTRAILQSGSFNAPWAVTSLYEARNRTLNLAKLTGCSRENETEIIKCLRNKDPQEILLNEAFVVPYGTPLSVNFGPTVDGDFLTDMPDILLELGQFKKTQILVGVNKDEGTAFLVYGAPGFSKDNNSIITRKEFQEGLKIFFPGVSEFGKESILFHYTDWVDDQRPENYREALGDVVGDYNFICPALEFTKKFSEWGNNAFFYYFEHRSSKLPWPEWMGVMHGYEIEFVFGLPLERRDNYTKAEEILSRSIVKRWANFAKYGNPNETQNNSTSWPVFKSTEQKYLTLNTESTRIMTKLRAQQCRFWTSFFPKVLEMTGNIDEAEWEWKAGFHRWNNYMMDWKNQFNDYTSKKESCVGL
Description: Inhibition of human BuChE using S-butyrylthiocholine iodide as substrate preincubated for 5 mins followed by substrate addition measured after 60 to 300 sec by Ellman's method
In a further series the target is Acetylcholinesterase (Homo sapiens, UniProt P22303). The experiment in a line: Inhibition of human AChE using acetylthiocholine iodide as substrate preincubated for 5 mins followed by substrate addition measured after 60 to 300 sec by Ellman's method. For orientation: DTNB colorimetry detects thiols as they appear.
Acetylcholinesterase, sequence (P22303 whole entry): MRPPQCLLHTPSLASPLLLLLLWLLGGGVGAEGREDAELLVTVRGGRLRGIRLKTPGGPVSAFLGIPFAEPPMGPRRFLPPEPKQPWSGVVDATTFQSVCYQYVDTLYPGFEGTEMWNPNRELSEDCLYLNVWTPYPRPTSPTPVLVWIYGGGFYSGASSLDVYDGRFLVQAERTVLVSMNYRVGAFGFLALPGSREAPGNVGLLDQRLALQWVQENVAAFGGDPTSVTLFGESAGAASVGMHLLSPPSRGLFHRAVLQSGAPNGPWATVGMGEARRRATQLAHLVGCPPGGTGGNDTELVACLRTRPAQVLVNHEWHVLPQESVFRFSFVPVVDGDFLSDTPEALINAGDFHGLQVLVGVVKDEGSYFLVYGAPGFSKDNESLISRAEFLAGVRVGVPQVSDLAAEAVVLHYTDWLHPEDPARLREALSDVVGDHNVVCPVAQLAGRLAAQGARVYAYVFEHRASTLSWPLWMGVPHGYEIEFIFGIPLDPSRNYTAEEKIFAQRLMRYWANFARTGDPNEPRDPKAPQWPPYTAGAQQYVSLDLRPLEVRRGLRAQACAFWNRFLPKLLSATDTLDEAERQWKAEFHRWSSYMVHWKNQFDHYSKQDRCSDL
Series [2] is described as follows: Antioxidant activity assessed as DPPH free radical scavenging activity at 50 uM incubated for 60 mins in dark relative to control. The series is classed as physicochemical. Particulars: 1 h. (DPPH is a stable violet radical that fades when it is reduced.)
In series [3] the target is Amyloid-beta precursor protein (Homo sapiens) (UniProt P05067). Description: Inhibition of amyloid beta (1-42) self-induced aggregation (unknown origin) at 10 uM measured every 5 mins for 16 hrs by thioflavin T fluorescence method relative to control.
Amyloid-beta precursor protein (Homo sapiens), sequence (P05067 whole entry): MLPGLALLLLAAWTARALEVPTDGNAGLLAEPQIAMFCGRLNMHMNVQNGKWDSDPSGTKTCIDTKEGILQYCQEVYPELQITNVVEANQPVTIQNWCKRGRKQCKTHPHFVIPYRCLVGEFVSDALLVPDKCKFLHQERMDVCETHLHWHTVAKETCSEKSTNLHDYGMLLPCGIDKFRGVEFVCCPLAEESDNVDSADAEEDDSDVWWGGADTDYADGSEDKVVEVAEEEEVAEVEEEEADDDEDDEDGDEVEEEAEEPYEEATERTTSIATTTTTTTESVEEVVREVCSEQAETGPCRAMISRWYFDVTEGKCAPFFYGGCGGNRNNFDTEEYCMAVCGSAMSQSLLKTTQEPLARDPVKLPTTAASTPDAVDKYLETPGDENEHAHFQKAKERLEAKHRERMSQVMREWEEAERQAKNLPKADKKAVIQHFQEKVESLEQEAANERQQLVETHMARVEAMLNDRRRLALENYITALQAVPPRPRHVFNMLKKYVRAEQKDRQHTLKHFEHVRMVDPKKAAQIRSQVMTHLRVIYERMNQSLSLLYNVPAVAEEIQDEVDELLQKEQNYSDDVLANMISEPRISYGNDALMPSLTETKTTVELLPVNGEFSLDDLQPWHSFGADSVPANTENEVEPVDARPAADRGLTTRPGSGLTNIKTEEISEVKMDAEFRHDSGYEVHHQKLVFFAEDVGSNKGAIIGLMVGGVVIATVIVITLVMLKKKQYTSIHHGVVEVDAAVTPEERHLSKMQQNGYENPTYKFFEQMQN
For series [4] the target is unchanged. The experiment in a line: Inhibition of amyloid beta (1-42) self-induced aggregation (unknown origin) measured every 5 mins for 16 hrs by thioflavin T fluorescence method.
For series [5] the target is unchanged. The experiment in a line: Inhibition of amyloid beta (1-42) self-induced aggregation (unknown origin) at 5 uM measured every 5 mins for 16 hrs by thioflavin T fluorescence method relative to control.
Series [6] has the same target. Description: Inhibition of amyloid beta (1-42) self-induced aggregation (unknown origin) at 1 uM measured every 5 mins for 16 hrs by thioflavin T fluorescence method relative to control.
Series [7] is described as follows: Cytotoxicity against human SH-SY5Y cells assessed as cell viability at 50 uM after 24 hrs by MTT assay relative to untreated control. The series is classed as cell-based. Particulars: read-out: Activity. (In general: Tetrazolium assays rely on reduction of a dye to a coloured formazan, in cell work by metabolically active cells.)
The target in series [8] is Amyloid-beta precursor protein (Homo sapiens) (UniProt P05067). Description: Inhibition of amyloid beta (1-42) self-induced aggregation (unknown origin) at 25 uM measured every 5 mins for 16 hrs by thioflavin T fluorescence method relative to control.
Series [9] concerns the target T1, Cholinesterase. The experiment in a line: Potency index, ratio of galantamine IC50 to compound IC50 for inhibition of human BuChE.

Consider `O=C(Cc1ccccc1)N1c2ccccc2[Se]c2ccc(Cl)cc21`, for which the 50% inhibitory concentration (IC50) on Cholinesterase [1] turned out to be 5 µM; against Acetylcholinesterase, 6.5 µM.

As to `c1ccc2c(c1)Nc1ccccc1S2` [PHENOTHIAZINE], the “inhibition (INH)” value in series [2] was 92.1%. In addition, the inhibition in series [3] was 59.1%; in [4], “Dose-dependent effect”; in series [5] it was 37.2%; in series [6], 18.3%; in series [8], 62%. Moreover, the half-inhibitory concentration (IC50) at Cholinesterase [1] is 5.8 µM; at Acetylcholinesterase it was 7.3 µM. Besides, in [7], the viability at 24 h, 50 µM was 63.3%. In addition, the Ratio IC50 at Cholinesterase [9] was determined as 11.

On to `COc1ccc(C(=O)N2c3ccccc3[Se]c3ccccc32)cc1OC`, for which the “inhibition (INH)” value in series [2] turned out to be 39%. The inhibition amounted to 8.7% in [3], 5.7% in series [5], 6.3% in series [6] and 11.1% in series [8]. Also, the results for the IC50 on Cholinesterase [1] and against Acetylcholinesterase were 9.1 µM and 5.1 µM, respectively. Besides, the viability at 24 h, 50 µM in series [7] came to 76%.

Turning to `COc1ccc(C(=O)N2c3ccccc3Sc3ccccc32)cc1OC`, the “inhibition (INH)” value in [2] is 44.3%. The inhibition result in series [3], in series [5], in series [6] and in [8] was “inactive” in each case. The results for the IC50 on Cholinesterase [1] and against Acetylcholinesterase were 45 µM and 5.8 µM, respectively. Also, the viability at 24 h, 50 µM in series [7] came to 63.3%.

With `COc1ccc(C(=O)N2c3ccccc3[Se]c3ccccc32)cc1`, the IC50 was 11.1 µM at Cholinesterase [1] and 4.6 µM on Acetylcholinesterase.

In the case of `COc1ccc(C(=O)N2c3ccccc3Sc3ccc(Cl)cc32)cc1OC`, the “inhibition (INH)” value in [2] turned out to be 46.5%. Moreover, the inhibition came out at 6.5% in [3], 4.5% in [5], 6.2% in series [6] and 5.9% in series [8]. Moreover, the figures for the concentration for half-maximal inhibition (IC50) against Cholinesterase [1] and at Acetylcholinesterase were 32.6 µM and 6.4 µM, respectively. Besides, in series [7], the viability at 24 h, 50 µM turned out to be 63.3%.

Take `Clc1ccc2c(c1)Nc1ccccc1[Se]2`: the “inhibition (INH)” value in series [2] stood at 73.2%. Also, the inhibition was determined as 25.1% in [3], 18.5% in series [5], 14.5% in [6] and 45% in series [8]. Also, the IC50 came out at 4.7 µM against Cholinesterase [1] and 6.3 µM against Acetylcholinesterase. Besides, the viability at 24 h, 50 µM in series [7] was found to be 43%.

Consider `COc1cccc(C(=O)N2c3ccccc3[Se]c3ccccc32)c1`, for which the half-inhibitory concentration (IC50) on Cholinesterase [1] stood at 9.6 µM; on Acetylcholinesterase it was 6.2 µM.

Consider `Cc1c(C)c2c(c(C)c1O)CCC(C)(C(=O)O)O2` (configuration not stated) [TROLOX], for which the “inhibition (INH)” value in [2] is 99.2%.

Turning to `O=C(c1ccccc1)N1c2ccccc2Sc2ccc(Cl)cc21`, the half-inhibitory concentration (IC50) was 9.3 µM against Cholinesterase [1] and 9.9 µM at Acetylcholinesterase.

Regarding `O=C(CCc1ccccc1)N1c2ccccc2Sc2ccccc21`, the IC50 against Cholinesterase [1] stood at 51 µM; against Acetylcholinesterase, 7.1 µM.

Take `COc1ccc(C(=O)N2c3ccccc3[Se]c3ccc(Cl)cc32)cc1`: the IC50 is 4.9 µM against Cholinesterase [1] and 5.8 µM against Acetylcholinesterase.

`O=c1c2ccccc2[se]n1-c1ccccc1` [EBSELEN]: in series [2], the “inhibition (INH)” value worked out at 34.7%. In addition, the IC50 is 4.6 µM against Cholinesterase [1] and 6.2 µM against Acetylcholinesterase. The viability at 24 h, 50 µM in series [7] was determined as 53.9%.

On to `c1ccc2c(c1)Nc1ccccc1[Se]2`, for which the “inhibition (INH)” value in [2] was determined as 84.4%. Moreover, the inhibition in [3] is 30.7%; in series [4], “Dose-dependent effect”; in series [5] it was 24.1%; in series [6], 16.3%; in series [8] it was 45.6%. The IC50 is 3 µM against Cholinesterase [1] and 5.6 µM against Acetylcholinesterase. Also, in [7], the viability at 24 h, 50 µM was 76%. Further, the Ratio IC50 at Cholinesterase [9] turned out to be 22.

Turning to `COc1ccc(C(=O)N2c3ccccc3[Se]c3ccc(Cl)cc32)cc1OC`, the “inhibition (INH)” value in [2] stood at 38.3%. The inhibition is 9.1% in [3], 7.9% in [5], 8.4% in series [6] and 5.9% in series [8]. The figures for the half-inhibitory concentration (IC50) against Cholinesterase [1] and against Acetylcholinesterase were 5.7 µM and 6.2 µM, respectively. For the same compound, the viability at 24 h, 50 µM in series [7] was 76%.

With `O=C(CCc1ccccc1)N1c2ccccc2[Se]c2ccccc21`, the figures for the IC50 at Cholinesterase [1] and against Acetylcholinesterase were 38 µM and 6.7 µM, respectively.

`O=C(CCc1ccccc1)N1c2ccccc2[Se]c2ccc(Cl)cc21`: the IC50 at Cholinesterase [1] worked out at 40 µM; at Acetylcholinesterase, 6.3 µM.

As to `O=C(c1ccccc1)N1c2ccccc2[Se]c2ccccc21`, the IC50 at Cholinesterase [1] is 22.7 µM; on Acetylcholinesterase, 5.4 µM.

Regarding `COc1cccc(C(=O)N2c3ccccc3Sc3ccccc32)c1`, the 50% inhibitory concentration (IC50) against Cholinesterase [1] was 25.5 µM; against Acetylcholinesterase, 6.2 µM.

For the compound `O=S(=O)(O)c1cc(S(=O)(=O)O)c2c(/N=N/c3ccccc3)c(O)ccc2c1`, the inhibition was 31% in [3], 20.4% in series [5], 8.6% in series [6] and 57.2% in [8].

On to `O=C(c1ccccc1)N1c2ccccc2Sc2ccccc21`, for which the 50% inhibitory concentration (IC50) was greater than 100 µM on Cholinesterase [1] and 8 µM against Acetylcholinesterase.

With `O=C(c1ccccc1)N1c2ccccc2[Se]c2ccc(Cl)cc21`, the half-inhibitory concentration (IC50) against Cholinesterase [1] was 3.8 µM; on Acetylcholinesterase, 6 µM.

Consider `O=C(Cc1ccccc1)N1c2ccccc2Sc2ccccc21`, for which the half-maximal inhibitory concentration (IC50) on Cholinesterase [1] was determined as 38.3 µM; at Acetylcholinesterase it was 7.4 µM.

With `COc1ccc(C(=O)N2c3ccccc3Sc3ccccc32)cc1`, the IC50 turned out to be 53 µM at Cholinesterase [1] and 6.3 µM against Acetylcholinesterase.

`O=C(Cc1ccccc1)N1c2ccccc2[Se]c2ccccc21`: the IC50 on Cholinesterase [1] is 11 µM; on Acetylcholinesterase it was 6.4 µM.

As to `COc1ccc(C(=O)N2c3ccccc3Sc3ccc(Cl)cc32)cc1`, the IC50 at Cholinesterase [1] came out at 5.3 µM; against Acetylcholinesterase, 5.9 µM.

With `COc1cccc(C(=O)N2c3ccccc3[Se]c3ccc(Cl)cc32)c1`, the figures for the IC50 against Cholinesterase [1] and on Acetylcholinesterase were 19.3 µM and 5.9 µM, respectively.

With `COc1cccc(C(=O)N2c3ccccc3Sc3ccc(Cl)cc32)c1`, the IC50 at Cholinesterase [1] worked out at 30.8 µM; against Acetylcholinesterase it was 4.6 µM.

As to `O=C(CCc1ccccc1)N1c2ccccc2Sc2ccc(Cl)cc21`, the results for the IC50 against Cholinesterase [1] and against Acetylcholinesterase were 5 µM and 7.9 µM, respectively.

On to `O=C(Cc1ccccc1)N1c2ccccc2Sc2ccc(Cl)cc21`, for which the half-inhibitory concentration (IC50) came to 3.6 µM against Cholinesterase [1] and 7.5 µM at Acetylcholinesterase.

In the case of `Clc1ccc2c(c1)Nc1ccccc1S2`, the “inhibition (INH)” value in series [2] was 76.4%. Also, the inhibition in series [3] amounted to 33.7%; in series [5], 22%; in series [6], 10.3%; in [8], 60.8%. The concentration for half-maximal inhibition (IC50) against Cholinesterase [1] came to 19.2 µM; on Acetylcholinesterase, 7.4 µM. Also, the viability at 24 h, 50 µM in series [7] amounted to 63.3%.
